Values after ≈ are worked out from the molar mass of the structure shown.
Experiments:
[1] = biological target: T1, Human neutrophil elastase (Homo sapiens, UniProt P08246); experiment: Human Neutrophil Elastase Assay; type: biochemical; details: substrate MeOSuc-Ala-Ala-Pro-Val-AMC 250 μM, pH 7.5, room temperature
T1 construct: purchased Calbiochem 324681
T1 sequence (P08246 30-247 limits assumed): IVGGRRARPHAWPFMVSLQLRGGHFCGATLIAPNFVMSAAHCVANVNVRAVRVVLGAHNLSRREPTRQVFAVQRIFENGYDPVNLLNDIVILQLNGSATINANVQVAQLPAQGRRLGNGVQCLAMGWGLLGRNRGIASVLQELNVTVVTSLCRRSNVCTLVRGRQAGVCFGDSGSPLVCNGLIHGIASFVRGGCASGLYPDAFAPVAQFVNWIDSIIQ
Source text: Human Neutrophil Elastase Assay

[2] = biological target: T2, neutrophil elastase in human plasma (Homo sapiens, UniProt P08246); experiment: Neutrophil elastase inhibitory activity in human plasma; type: biochemical; details: zymosan-stimulated human plasma, substrate MeOSuc-Ala-Ala-Pro-Val-AMC 250 μM
T2 construct: The stimulated blood is centrifuged to generate the neutrophil elastase enriched plasma; from tissue; host or cells: plasma from zymosan-stimulated citrated whole blood of healthy human donors
T2 sequence (P08246 30-267): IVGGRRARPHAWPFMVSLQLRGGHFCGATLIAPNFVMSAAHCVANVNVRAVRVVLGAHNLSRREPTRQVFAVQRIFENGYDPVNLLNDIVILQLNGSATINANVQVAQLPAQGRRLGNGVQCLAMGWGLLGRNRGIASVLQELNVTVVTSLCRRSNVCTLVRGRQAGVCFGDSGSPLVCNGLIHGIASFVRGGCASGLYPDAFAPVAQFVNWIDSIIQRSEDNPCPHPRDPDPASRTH
Procedure: Assay for the Determination of Neutrophil Elastase Inhibitory Activity in Human Plasma
Citrated blood from human healthy donors is mixed with zymosan suspension and incubated at room temperature. This leads to the stimulation of neutrophils and the release of neutrophil elastase into the plasma. The stimulated blood is centrifuged to generate the neutrophil elastase enriched plasma.
• A single 45 ml blood sample is taken into a 50 ml tube containing citrate (3.13%, 5 mL) and the tube is gently inverted 4 times. • Immediately after blood sampling, zymosan working solution (5 mL) is added. • After the addition of zymosan working solution, the tubes are capped, mixed gently and incubated at 22° C. for 15 min on a shaker at 20 rpm. • Make 10 ml aliquots after the incubation time. • Centrifuge the 15 ml tubes at 800 g for 15 min at 4° C. in a Jouan centrifuge. • Harvest the plasma and make 1-5 ml aliquots. • Store the plasma at −80° C.
A dose response curve is generated to calculate the EC50 of the inhibitor. The analysis of the data is performed by the calculation of the percentage of fluorescence in the presence of the test compound compared to the fluorescence of the vehicle control after subtracting the background fluorescence: An inhibitor of the neutrophil elastase enzyme will give values between 100% control (no inhibition) and 0% control (complete inhibition).

[3] = Metabolic stability with human liver microsomes; type: in vitro ADME; details: pooled human liver microsomes, pH 7.6; human liver microsomes 1 mg/ml, 1 μM compound, 37° C., NADPH; read-out: t1/2 INVITRO
[4] = Drug transport across human Caco-2 cells; type: in vitro ADME; details: pH 7.2, 37° C.; for Papp A→B at 10 µM: apical-to-basal, read-out: PEAB; for Papp B→A at 10 µM: basal-to-apical, read-out: PEBA
Source text: Assay for Determination of Drug Transport Across Human Caco-2 Cells
The assay provides information on the potential of a compound to pass the cell membrane, on the extent of oral absorption as well as on whether the compound is actively transported by uptake and/or efflux transporters. For the measurement of permeability across polarized, confluent human cancer colon carcinoma cells 2 (Caco-2) cell monolayers grown on permeable filter supports are used as the in vitro absorption model.
Apparent permeability coefficients (PE) of the compounds across the Caco-2 monolayers are measured (pH 7.2, 37° C.) in apical-to-basal (AB) (absorptive) and basal-to-apical (BA) (secretory) transport direction. AB permeability (PEAB) represents drug absorption from the intestine into the blood and BA permeability (PEBA) drug secretion from the blood back into the intestine via both passive permeability as well as active transport mechanisms mediated by efflux and uptake transporters that are expressed on the Caco-2 cells. The compounds are assigned to permeability/absorption classes by comparison of the AB permeabilities with the AB permeabilities of reference compounds with known in vitro permeability and oral absorption in the human. Identical or similar permeabilities in both transport directions indicate passive permeation, vectorial permeability points to additional active transport mechanisms. […] Active transport is concentration-dependently saturable.
Caco-2 cells (1-2*10^5 cells/cm^2 area) are seeded on filter inserts (Costar transwell polycarbonate or PET filters, 0.4 μm pore size) and cultured (DMEM) for 10 to 25 days. Compounds are dissolved in appropriate solvent (like DMSO, 1-20 min stock solutions). Stock solutions are diluted with HTP-4 buffer (128.13 min NaCl, 5.36 min KCl, 1 mM MgSO4, 1.8 min CaCl2, 4.17 min NaHCO3, 1.19 min Na2HPO4×7H2O, 0.41 mM NaH2PO4×H2O, 15 min HEPES, 20 min glucose, pH 7.2) to prepare the transport solutions (typically 10 μM compound, final DMSO<=0.5%). The transport solution (TL) is applied to the apical or basolateral donor side for measuring A-B or B-A permeability (3 filter replicates), respectively. The receiver side contains HTP-4 buffer supplemented with 2% BSA. Samples are collected at the start and end of experiment from the donor and at various time intervals for up to 2 hours also from the receiver side for concentration measurement by LC-MS/MS or scintillation counting. Sampled receiver volumes are replaced with fresh receiver solution.

[5] = Aqueous solubility; type: physicochemical; details: McIlvaine buffer pH 6.8 containing 2.5% DMSO, kinetic from dmso stock, McIlvaine buffer pH 6.8, 2.5% DMSO, 24 h shaking
Procedure: Assay for Determination of Aqueous Solubility
Starting from a 10 min DMSO stock solution, aliquots are diluted with acetonitrile/water (1/1) and McIlvaine buffer pH 6.8, respectively. After 24 h of shaking, the solutions or suspensions are filtered and analyzed by LC-UV. The amount dissolved in buffer is compared to the amount dissolved in the acetonitrile/water (1/1) solution. Solubility is measured from 0.001 to 0.125 mg/ml at a DMSO concentration of 2.5%. If more than 90% of the compound is dissolved in buffer, the value is marked with “>”.

| IC50 [1] [nM] | EC50 [2] [nM] | half-life at 1 μM [3] [h] | Papp A→B at 10 µM [4] [×10⁻⁶ cm/s] | Papp B→A at 10 µM [4] [×10⁻⁶ cm/s] | solubility at 24 h [5] [µg/mL] | Structure (SMILES) |
| --- | --- | --- | --- | --- | --- | --- |
| < 1 | < 1 | 0.967 | 4.1 | 58 | 65 (≈ 133 µM) | CN1C(=O)N(c2cccc(C(F)(F)F)c2)C2=C(C(=O)CCC2)C1c1ccc(C#N)cc1[S+](C)[O-] (single isomer, unassigned) [Example 2.1A, 3-Methanesulfinyl-4-[3-methyl-2,5-dioxo-1-(3-trifluoromethyl-phenyl)-1,2,3,4,5,6,7,8-octahydro-quinazolin-4-yl]-benzonitrile] |
| 1.1 | 2 | 2.17 | 10 | 120 | 62 (≈ 116 µM) | CN1C(=O)N(c2cccc(C(F)(F)F)c2)C2=C(C(=O)CCC2)C1c1ccc(C#N)cc1S(=O)(=O)CCO (stereo not drawn) [Example 4.3] |
| < 1 | 1 | > 2.17 | 3.9 | 68 | 72 (≈ 135 µM) | CS(=O)(=O)c1cc(C#N)ccc1C1C2=C(CCCC2=O)N(c2cccc(C(F)(F)F)c2)C(=O)N1CCO (stereo not drawn) [Example 6, 4-[3-(2-Hydroxy-ethyl)-2,5-dioxo-1-(3-trifluoromethyl-phenyl)-1,2,3,4,5,6,7,8-octahydro-quinazolin-4-yl]-3-methanesulfonyl-benzonitrile] |
